# According to ChEMBL document CHEMBL1151857, “A new psoralen derivative with enlarged antiproliferative properties” (Bioorg Med Chem Lett, 2009):
# pIC50: −log10 of the molar value. The source made the active and inactive calls. The rule behind the calls is not given here.
# Key:
# Nucleic Acid = test: Binding affinity to DNA assessed as intercalation between base pairs by linear flow dichroism spectroscopy; type: nucleic-acid assay
# HeLa [1] = test: Photo-antiproliferative activity against human HeLa cells under dark condition; type: functional, cell-based
# HeLa [2] = test: Photo-antiproliferative activity against human HeLa cells exposed to 365 nm, 0.793 Jcm'-2 UVA light; type: functional, cell-based; conditions: light or radiation study
# Zone of skin = test: Phototoxicity in depilated guinea pig skin assessed as formation of erythema; type: tissue-based, Cavia porcellus
Activity (Nucleic Acid),pIC50 (HeLa [1]),pIC50 (HeLa [2]),SMILES,Activity (Zone of skin)
Active,4.87,5.54,CN(C)CCCOc1c2oc(=O)ccc2cc2c1oc1nnccc12,–
–,< 4.70,–,COc1c2occc2cc2ccc(=O)oc12 [METHOXSALEN],Toxic
